Laboratory results taken from patent US9090596B2, “Disubstituted 3,4-diamino-3-cyclobutene-1,2-dione compounds for use in the treatment of chemokine-mediated pathologies” (GALDERMA RESEARCH & DEVELOPMENT, priority 2011, dated 2015).

Legend:
[1] = target: CXCR1 receptor (Homo sapiens (Human), UniProt P25024); experiment: β-arrestin 2 recruitment test, U2OS hCXCR1 β-arrestin cells stimulated with CXCL8; assay type: cell-based; conditions: CXCL8 stimulation
Description: (§1) The in vitro affinity of the compounds of the present invention for the CXCR1 and CXCR2 receptors was determined on a functional test of the β-arrestin recruitment type after receptor activation.
(§2) β-Arrestin Recruitment Assay:
(§3) “PathHunter HEK293-CXCR2” or “U2OS hCXCR1 β-arrestin” cells (DiscoveRx Corporation) were seeded overnight at 10 000 cells/well (384-well format) in 20 μl of Opti MEM I medium. A preincubation with the antagonist or the vehicle for 30 min at 37° C. and 5% CO2 was followed by 60 minutes of stimulation with CXCL8 at 37° C. and 5% CO2. The cells were then placed at ambient temperature for 30 minutes. The PathHunter detection reagent (DiscoveRx Corporation) was added. […] The data were analyzed by means of a non-linear curve procedure using the XLFit4 exploitation software (IDBS) and the IC50 values were determined.

[2] = target: CXCR2 receptor (Homo sapiens (Human), UniProt P25025); experiment: β-arrestin 2 recruitment test, PathHunter HEK293-CXCR2 cells stimulated with CXCL8; assay type: cell-based; conditions: CXCL8 stimulation
Sequence of CXCR2 receptor (P25025 whole entry): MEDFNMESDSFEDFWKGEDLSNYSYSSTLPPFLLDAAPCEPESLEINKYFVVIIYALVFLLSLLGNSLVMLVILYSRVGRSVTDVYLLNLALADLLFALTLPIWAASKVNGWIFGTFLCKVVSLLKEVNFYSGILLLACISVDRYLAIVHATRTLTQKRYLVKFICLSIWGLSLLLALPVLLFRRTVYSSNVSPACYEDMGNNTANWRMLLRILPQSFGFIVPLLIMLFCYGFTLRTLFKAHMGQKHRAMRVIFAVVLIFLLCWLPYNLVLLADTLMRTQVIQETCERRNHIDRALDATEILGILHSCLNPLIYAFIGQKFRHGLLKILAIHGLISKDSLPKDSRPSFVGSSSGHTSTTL
Description: as §1, §2, §3

[3] = Metabolic stabilities in hepatic microsomes; assay type: in vitro ADME; conditions: pH 7.4; hepatic microsomes 0.5 mg/ml, compound 1 μM; read-out: Half-life time
Description: Hepatic microsomes (Becton Dickinson) were incubated at a protein concentration of 0.5 mg/ml in the reaction medium.
The reaction medium of the microsomes was composed of phosphate buffer, pH: 7.4 at 100 mM, of MgCl2 at 100 mM (50/50), of an […] composed of a mixture of […] (NADP) and of glucose-6-phosphate (G6P) at 1 mg/ml and of glucose-6-phosphate dehydroganase (G6PDH) at 4 U/ml. The compounds were tested at 1 μM (0.1% DMSO).
The samples of incubation medium after addition of the microsomes were taken at times 5, 10, 15, 30 and 60 minutes. At each time, the metabolic reaction was stopped by adding methanol (1 volume incubation medium/3 volumes of methanol). The disappearance of the parent product was measured by LC/MS/MS analysis. The time for which 50% of parent Product disappeared (T½) was calculated from the kinetics of disappearance of the parent product as a function of time.

[4] = target: CCR4 (Homo sapiens (Human), UniProt P51679); experiment: Receptor profiling: calcium flux (FLIPR TETRA) on Chem-1 cells expressing chemokine receptor; assay type: cell-based; conditions: antagonist activity, reference agonist at AC80
Sequence of CCR4 (P51679 whole entry): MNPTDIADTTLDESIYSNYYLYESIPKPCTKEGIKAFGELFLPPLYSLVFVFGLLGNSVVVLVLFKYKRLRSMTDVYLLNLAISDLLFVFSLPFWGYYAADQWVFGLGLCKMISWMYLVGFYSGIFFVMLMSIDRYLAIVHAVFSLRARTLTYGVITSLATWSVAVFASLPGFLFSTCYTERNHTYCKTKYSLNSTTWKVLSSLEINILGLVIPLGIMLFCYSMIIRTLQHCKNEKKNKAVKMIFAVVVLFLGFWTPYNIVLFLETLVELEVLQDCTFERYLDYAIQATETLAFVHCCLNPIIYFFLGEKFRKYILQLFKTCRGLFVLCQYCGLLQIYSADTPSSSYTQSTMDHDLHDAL
Description: (§4) Measurement of Calcium Flux on Cells:
(§5) The experiments were carried out on the FLIPR TETRA® platform from Molecular Devices. After the basal level had been read, the compounds were added to the cells expressing the chemokine receptor of interest and the agonist activity was read at 10 seconds.
(§6) Each cell line expressing a chemokine receptor was established on the basis of the Chem-1 cell stably expressing the recombinant form of the chemokine receptor and also an associated G protein, with the aim of coupling the receptor to the calcium signalling pathway. 21 receptors belonging to the chemokine receptor family (CCRs and CXCRs) were analyzed. All the CXCR2 antagonists were tested in a dose-dependent manner and the concentration corresponding to 50% inhibition of the response was determined (IC50).

[5] = target: CXCR3 (Homo sapiens (Human), UniProt P49682); experiment: as above; assay type: cell-based; conditions: antagonist activity, reference agonist at AC80
Sequence of CXCR3 (P49682 whole entry): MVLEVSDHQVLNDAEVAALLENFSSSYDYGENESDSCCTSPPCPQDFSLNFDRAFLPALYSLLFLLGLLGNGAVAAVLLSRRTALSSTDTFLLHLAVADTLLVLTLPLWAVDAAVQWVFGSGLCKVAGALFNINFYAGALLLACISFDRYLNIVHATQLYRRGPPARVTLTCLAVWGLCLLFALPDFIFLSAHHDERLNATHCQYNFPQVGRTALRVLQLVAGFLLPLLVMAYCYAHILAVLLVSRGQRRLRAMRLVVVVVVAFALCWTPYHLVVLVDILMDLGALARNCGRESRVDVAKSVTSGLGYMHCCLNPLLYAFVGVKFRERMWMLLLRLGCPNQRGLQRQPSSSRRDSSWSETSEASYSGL
Description: as §4, §5, §6

[6] = Metabolic stabilities in hepatocytes; assay type: in vitro ADME; conditions: human hepatocytes, compound 1 μM; read-out: Half-life time
Description: The human hepatocytes were supplied by Biopredic in 24-well plates.
At each time, the metabolic reaction was stopped by adding methanol (1 volume incubation medium/3 volumes of methanol). The disappearance of the parent product was measured by LC/MS/MS analysis. The time for which 50% (T½) of parent product disappeared was calculated from the kinetics of disappearance of the parent product as a function of time.

[7] = test system: receptors of CXCR1 and CXCR2 type; conditions: pseudo-irreversible dissociation, JPET 322:477-485, 2007; cited from earlier work

Sequence of CXCR1 receptor (P25024 whole entry): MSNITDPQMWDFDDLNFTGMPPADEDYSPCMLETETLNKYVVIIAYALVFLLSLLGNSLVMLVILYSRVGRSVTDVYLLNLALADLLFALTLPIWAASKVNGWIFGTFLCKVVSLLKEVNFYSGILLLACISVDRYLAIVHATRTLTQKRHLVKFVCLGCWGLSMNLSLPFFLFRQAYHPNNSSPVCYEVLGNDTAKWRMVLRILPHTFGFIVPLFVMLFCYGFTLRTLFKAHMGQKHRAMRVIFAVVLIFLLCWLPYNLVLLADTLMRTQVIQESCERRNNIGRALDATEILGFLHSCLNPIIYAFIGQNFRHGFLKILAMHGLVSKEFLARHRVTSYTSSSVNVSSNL

SMILES | IC50 [1] [µM] | IC50 [2] [µM] | half-life at 1 μM [3] [min] | IC50 [4] [µM] | IC50 [5] [µM] | half-life at 1 μM [6] [min] | dissociation time [7]
Cc1ccc(C(Nc2c(Nc3cccc(S(=O)(=O)N(C)C)c3O)c(=O)c2=O)C2(C)COC2)o1 (stereo not shown) [Example 21, 2-hydroxy-N,N-dimethyl-3-(2-{[(5-methylfuran-2-yl)-(3-methyloxetan-3-yl)methyl]amino}-3,4-dioxocyclobut-1-enylamino)benzenesulfonamide] | 1.44 | 0.257 | 7.7 |  |  |  | 
Cc1ccc([C@H](Nc2c(Nc3ccc(Cl)c(S(=O)(=O)N4CCN(C)CC4)c3O)c(=O)c2=O)C2(C)COC2)o1 [Example 53, 3-[4-chloro-2-hydroxy-3-(4-methylpiperazine-1-sulfonyl)phenylamino]-4-{[(R)-(5-methylfuran-2-yl)-(3-methyloxetan-3-yl)methyl]amino}cyclobut-3-ene-1,2-dione] | 0.115 | 0.03 | 47 | 0.45 | 0.92 | 186 | 
CC[C@@H](Nc1c(Nc2cccc(C(=O)N(C)C)c2O)c(=O)c1=O)c1ccc(C)o1 [SCH-527123] |  |  |  |  |  |  | about 22 h
